Experimental data from patent publication US7781565B2 (priority 2006, dated 2010).
“Also recorded” adds a separate entry of the source.

What follows are substances tested on NCI-60 cell lines.
Format: cell-based, human

Substance | Cell Line (NCI-60 cell line the peptide and its motif are associated with) | Cell Line (NCI-60 cell line the peptide is associated with) | Cell Line with which the peptide (and its tripeptide motif) is associated | Cell Line the peptide is associated with (peptide recovered from phage library selection on this NCI-60 cell line)
LSAVSVK | SK-MEL-5 Melanoma | – | – | –
LSERRGV | – | SF-295 CNS | – | –
LSFSRGS | – | – | HL-60-Leukemia | –
LSGRVIV | – | – | – | UO31 Renal
LSGSVLQ | – | HCT-116 Colon | – | –
LSKGGSE | – | – | – | T-47D Breast
LSLAGAG | – | HT-29 Colon | – | –
LSLRGGL | – | – | – | MDA-MB-231 Breast
LSMLRSA | – | – | H322-Lung | –
LSRGSVA | M14 Melanoma | – | – | –
LSSGLVS | – | – | H460-Lung | –
LSTPGRV | – | – | – | UO31 Renal
LSVLRVL | IGROV1 Ovarian | – | – | –
LTAAVMV | – | SNB-75 CNS | – | –
LTGGLVF | DU-145 Prostate | – | – | –
LVGRGVR | – | SF-268 CNS | – | –
LVGRVKL | – | HT-29 Colon | – | –
LVGSSRV | SK-OV-3-3 Ovarian | – | – | –
LVPLVSG | SK-OV-3-3 Ovarian | – | – | –
LVRASNG | SK-MEL-28 Melanoma | – | – | –
LVRDGVL | – | MALME-3M Melanoma | – | –
LVRLVSL | IGROV1 Ovarian | – | – | –

Substance | Cell Line (NCI-60 cell line the peptide and its motif are associated with) | Cell Line (NCI-60 cell line the peptide is associated with) | Cell Line with which the peptide (and its tripeptide motif) is associated | Cell Line the peptide is associated with (peptide recovered from phage library selection on this NCI-60 cell line)
LVRSSGL | – | – | Hop-92-Lung | –
LVRVSGR | – | – | HL-60-Leukemia | –
LVSGYNG | – | – | Hop-92-Lung | –
LVSSGSK | – | – | HL-60-Leukemia | –
LVSSSEP | – | – | HL-60-Leukemia | –
LVSTRWA | – | – | – | RXF393 Renal
LVSTSNR | SK-MEL-2 Melanoma | – | – | –
LVSVNGA | – | SNB-19 CNS; also recorded: SF-539 CNS | – | –
LVSVWSR | – | HCT-15 Colon | – | –
LVSYSAV | – | – | – | RXF393 Renal
LVYSGRL | – | SW620-Colon | – | –
LWFELVS | – | – | – | MCF-7 Breast
LWGLGWL | – | HCC-2998-Colon | – | –
LWLRSRE | UACC 257 Melanoma | – | – | –
LYGGVRY | – | – | A549-Lung | –
LYGVRYG | – | – | RPMI-8226-Leukemia | –
LYLLSSA | SK-MEL-5 Melanoma | – | – | –
LYMGGSH | – | – | – | TK-10 Renal
LYVDASL | – | – | – | MDA-MB-435-Breast
MDGVSTE | – | – | – | A498 Renal
MERVAGR | – | – | – | SN12C Renal
MFARGWE | – | – | CCRF-CEM Leukemia | –

Substance | Cell Line (NCI-60 cell line the peptide and its motif are associated with) | Cell Line (NCI-60 cell line the peptide is associated with) | Cell Line with which the peptide (and its tripeptide motif) is associated | Cell Line the peptide is associated with (peptide recovered from phage library selection on this NCI-60 cell line)
MGMSGPS | – | – | CCRF-CEM Leukemia | –
MGPSARW | – | – | – | BT-549 Breast
MGSAVSL | – | – | Hop-92-Lung | –
MGVLTAE | – | SNB-19 CNS; also recorded: SF-539 CNS | – | –
MITRGRL | – | HCT-15 Colon | – | –
MLASAGR | – | – | HL-60-Leukemia | –
MLGRGSV | – | – | – | SN12C Renal
MLGSASL | – | – | – | A498 Renal
MPAGLGV | – | – | – | RXF393 Renal
MPGSSRP | – | – | – | RXF393 Renal
MQGRVIV | SK-OV-3-3 Ovarian | – | – | –
MQLRGAV | OVCAR-4 Ovarian | – | – | –
MRGSGRN | – | KM-12C Colon | – | –
MRGVARK | A498 Renal | – | – | –
MRPGLRS | – | – | – | MDA-MB-231 Breast
MRYELRS | – | – | – | SN12C Renal
MSAFGRL | – | – | EKVX-Lung | –
MSARGIL | SK-OV-3-3 Ovarian | – | – | –
MSNLAAV | – | COLO-205-Colon | – | –
MVLRGSY | – | SNB-75 CNS | – | –
MVYSGVS | M14 Melanoma | – | – | –
MYLRLLR | – | HCT-116 Colon | – | –

Substance | Cell Line (NCI-60 cell line the peptide and its motif are associated with) | Cell Line (NCI-60 cell line the peptide is associated with) | Cell Line with which the peptide (and its tripeptide motif) is associated | Cell Line the peptide is associated with (peptide recovered from phage library selection on this NCI-60 cell line)
NAASLPS | – | – | SR Leukemia | –
NAGRGAS | – | – | – | TK-10 Renal
NAVRGSA | – | HCT-116 Colon | – | –
NCYSLRS | OVCAR-4 Ovarian | – | – | –
NEFLGRL | – | HCT-116 Colon | – | –
NEGRLGI | – | SNB-75 CNS | – | –
NELRVCR | – | – | – | SN12C Renal
NGGRVLS | – | – | – | ACHN Renal
NGRGSGW | – | – | HL-60-Leukemia | –
NKGGLRQ | SK-OV-3-3 Ovarian | – | – | –
NLADGSV | – | – | H322-Lung | –
NLRGSRS | SK-MEL-2 Melanoma | – | – | –
NLRVGAE | OVCAR-4 Ovarian | – | – | –
NMAGGQE | IGROV1 Ovarian | – | – | –
NMGAVGS | DU-145 Prostate | – | – | –
NMGRGSL | – | – | – | ACHN Renal
NNVGGSS | OVCAR-4 Ovarian | – | – | –
NPGLVWN | – | – | – | MDA-MB-231 Breast
NRAVLSA | SK-OV-3-3 Ovarian | – | – | –
NRSSAKF | – | – | K-562-Leukemia | –
NRSSGRR | – | – | SR Leukemia | –
NRSSHCG | M14 Melanoma | – | – | –

Substance | Cell Line (NCI-60 cell line the peptide and its motif are associated with) | Cell Line (NCI-60 cell line the peptide is associated with) | Cell Line with which the peptide (and its tripeptide motif) is associated | Cell Line the peptide is associated with (peptide recovered from phage library selection on this NCI-60 cell line)
NSFGLRY | – | COLO-205-Colon | – | –
NSGSVVS | – | – | – | MDA-MB-231 Breast
NSKPLVS | – | – | – | T-47D Breast
NSQRSSV | UACC 257 Melanoma | – | – | –
NSVRGSR | SK-OV-3-3 Ovarian | – | – | –
NVGGGRF | – | – | – | NCI/ADR-RES Breast
NVSRAVG | OVCAR-8 Ovarian | – | – | –
NWDARGR | M14 Melanoma | – | – | –
NYGSSFH | – | – | Hop-62-Lung | –
NYMGPSA | – | – | A549-Lung | –
PAASRLL | – | – | RPMI-8226-Leukemia | –
PAFGPSR | – | – | RPMI-8226-Leukemia | –
PAGRMLS | SK-MEL-2 Melanoma | – | – | –
PAILRVR | – | – | – | UO31 Renal
PATRGSV | – | – | Hop-92-Lung | –
PAVAGST | – | – | – | HS 578 T Breast
PDRASDG | – | – | Hop-62-Lung | –
PEGGRRP | – | – | – | SN12C Renal
PFHRRAV | – | – | – | T-47D Breast
PFPARSS | – | – | H23-Lung | –
PGAVLTV | – | COLO-205-Colon | – | –
PGAVPGA | – | HT-29 Colon | – | –

Substance | Cell Line (NCI-60 cell line the peptide and its motif are associated with) | Cell Line (NCI-60 cell line the peptide is associated with) | Cell Line with which the peptide (and its tripeptide motif) is associated | Cell Line the peptide is associated with (peptide recovered from phage library selection on this NCI-60 cell line)
PGFMAGS | UACC62 Melanoma | – | – | –
PGGGRGR | – | – | – | UO31 Renal
PGGLVPG | – | HT-29 Colon | – | –
PGGSDAA | – | SNB-19 CNS | – | –
PGGSRHA | SK-MEL-5 Melanoma | – | – | –
PGKRGVQ | – | – | H460-Lung | –
PGLGYAL | – | – | – | T-47D Breast
PGLRGPA | OVCAR-4 Ovarian | – | – | –
PGSSFVG | – | HCT-15 Colon | – | –
PGVLREP | – | – | – | A498 Renal
PIGAVMN | DU-145 Prostate | – | – | –
PIGGLFG | – | – | – | ACHN Renal
PKAGRGS | – | – | Hop-62-Lung | –
PLAVGLV | – | HCT-116 Colon | – | –
PLAVSMV | – | – | SR Leukemia | –
PLLREVG | – | – | – | SN12C Renal
PLLRQQL | – | – | – | ACHN Renal
PLQRGSG | – | – | – | BT-549 Breast
PLRSFDS | – | – | H23-Lung | –
PLRSVWS | – | SF-268 CNS | – | –
PLRVDNL | – | – | H23-Lung | –
